Columns and labels:
[1] = tested on: Mouse Asthma Model; experiment: Mouse asthma model (OVA, intranasal induction); type: in vivo, BLAB/c mouse; conditions: 750 µg per time intranasally; BALF on DAY-28; Fig. 2
Experimental: Equivolume of 10% KAI(SO4)2·12H2O (WAKO) solution and ovalbumin (hereinafter "OVA") solution (500 µg/ml) were mixed, and 10N NaOH was slowly added to neutralize the solution to obtain Al(OH)3 gel (OVA 500 µg/ml) on which OVA was adsorbed. The obtained product was intraperitoneally administered to each BLAB/c mouse (female, 7 weeks old, JAPAN CHARLES RIVER) at a dose of 200 µl (100 µg) per mouse on DAY-0 and DAY-14. Thereafter, on DAY-14, 50 µl of 2 mg/ml solution of OVA in physiological saline was intranasally administered, and on DAY-25, 26 and 27, 50 µl of 1 mg/ml solution of OVA in physiologically saline was intranasally administered to induce inflammation. Compound No. 140 used as the test compound was dissolved in physiological saline and the solution was intranasally administered at 30 minutes before induction with OVA, at 8 hours after induction, and on DAY-25, 26 and 27, twice a day, at a dose of 750 µg per time. To the background group and control group, physiological saline was intranasally administered.
On DAY-28, bronchus of each mouse was incised and the bronchus and alveoli were washed (BAL) 4 times with 0.7 ml of physiological saline. […] After staining the specimen by May-Giemsa staining method, the leukocytes were grouped and counted under microscope to determine the number of eosinophils. […]

[2] = tested on: Guinea Pig Rhinitis Model; experiment: Guinea pig rhinitis model (OVA, respiratory resistance); type: in vivo, Harley guinea pig; conditions: 10 mg intranasally before induction by the antigen; 10 minutes to 8 hours after induction; Fig. 3
Experimental: Cyclophosphamide (SIGMA) was dissolved in physiological saline to a concentration of 25 mg/ml, and the solution was intraperitoneally administered to each Harley guinea pig (male, 2 weeks old, JAPAN SLC) at a dose of 50 mg/kg on DAY-0. Equivolume of OVA (2.0 mg/ml) dissolved in physiological saline and 12 ml of aqueous 9% AlK(SO4)2 solution were mixed, and then 10% aqueous Na2CO3 solution was added thereto to adjust the pH to 6.5, thereby obtaining Al(OH)3 gel (OVA 500 µg/ml) on which OVA was adsorbed. The obtained product was centrifuged and the precipitated gel was washed with PBS(-), followed by addition of Bordetella pertussis cell suspension (WAKO PURE CHEMICALS). The OVA concentration was adjusted to 100 µg/ml, and 1 ml (100 µg) of the resulting product was intraperitoneally administered to each guinea pig. On DAY-22, each mice was made to inhale 1% OVA dissolved in physiological saline for 10 minutes. […] The increase in the respiratory resistance from 10 minutes after the induction to 8 hours after the induction was measured by a respiratory resistance-measuring apparatus (body plethysmograph method; SHIZUME MEDICAL), and the result was expressed in terms of the ratio of the measured resistance based on the respiratory resistance measured before the induction by the antigen. […]

`CC(C)(C)CC(=O)N[C@@H](CSSC[C@H](NC(=O)CC(C)(C)C)C(=O)O)C(=O)O` [Example 140, 3-((2(R)-carboxy-2(R)-(3,3-dimethylbutanoylamino)ethyl)disulfanyl)-2(R)-(3,3-dimethylbutanoylamino)propionic acid] was tested, and the “accumulation of leukocytes, especially eosinophils, in the lung” value [1] was “inhibits” and the “increase in the respiratory resistance” value [2] was “inhibits”.
